In a melting point compilation (Tetko et al.; mined from patent text by program, amines drawn as free bases though some values may be those of a salt) one finds melting point data, which are given here for 89 compounds.

The structures appear in SMILES notation.

What is called melting point is the temperature, or range, at which the solid turns liquid. In turn, `O=C(O)C1CSC(c2cccnc2)N1` (centres undefined) gave a melting point of 135 to 140 °C.
Consider `NS(=O)(=O)c1cccc(-c2noc(-c3cnc4ccc(-c5ccc(C(F)(F)F)cc5)cn34)n2)c1`, for which the melting point was determined as 288 °C.
On to `Cc1cc(C)c2nc(N(CC(C)N3CCOCC3)C3CCNCC3)n(Cc3nc(C)ccc3O)c2c1` (centres undefined), for which the melting point is 223 °C.
In the case of `Cn1c(=N)c(C(=O)NCCN2CCOCC2)c(O)c2cc(Cl)ccc21`, the melting point fell in the range of 211 to 213 °C.
On to `CNc1nc(Cl)c(Cl)c(N2CCN(CC[C@H]3CC[C@H](NC(=O)OC(C)(C)C)CC3)CC2)n1`, for which the melting point was 199 to 202 °C.
The compound `CCOCCn1c(CN2CCN(CC#N)CC2)nc2cccnc21` came in with a melting point of 80.7 °C.
In the case of `O=c1c(Cc2ccccc2)c2n(c(=O)n1CCCCCl)CCCS2(=O)=O`, the melting point is 103 to 105 °C.
For `Cc1ccc(C)c(OCCCC(C)(C)C(=O)Nc2cccc(C3=NCCCO3)c2)c1` the value was 114 to 115 °C; for `O=c1[nH]c2cc(Cl)cc(Cl)c2c(=O)n1Cc1cccc(I)c1`, 299 to 302 °C.
In turn, `COc1ccc2c(Br)csc2c1` yielded a melting point of 62 °C.
Turning to `O=C(O)CCC(=O)c1ccc2sc3ccccc3c2c1`, the melting point was in the range of 157 to 158 °C.
In the case of `O=C1NC(=O)C(c2ccc(NC(=O)c3ccccc3)cc2)S1` (centres undefined), the melting point was in the range of 240 to 245 °C.
Turning to `CC1(C)CCC(C)(C)c2cc(OCc3ccc(CC(N)=O)cc3)ccc21`, the melting point was 202 to 205 °C.
Take `COC(=O)c1ccc(C(=O)Nc2nc(-c3cccc(C)c3)c(-c3ccncn3)s2)cc1`: the melting point lay in the range of 339 to 341 °C.
`Cc1noc(-c2ncn3c2[C@@H]2CCCN2C(=O)c2c-3ccc(F)c2Cl)n1` gave a melting point of 245 to 246 °C.
The compound `CCOC(=O)c1ccc(/C=C(/COCc2ccc(OC)cc2)Cn2ccnc2)c(Cl)c1` registered a melting point of 41 to 42 °C.
In turn, `COC(=O)c1cc(N)c(N(C)C(C)=O)c(N)c1` displayed a melting point of 120 °C.
The compound `COC(=O)Cc1ccc(C#N)cc1` returned a melting point of 40 to 41 °C.
`CCC1(C)C(=O)c2c(cc(OC)c(Cl)c2Cl)C1c1ccccc1` (centres undefined): the melting point is 132 °C.
Consider `CN(C)C(=O)c1ccc2c(c1)C(c1ncnc3cc(OCCCN4CCOCC4)ccc13)C(=O)N2` (centres undefined), for which the melting point is 168 to 169 °C.
Turning to `COC(=O)C=CC(C)Oc1ccc(OCc2ccccc2)cc1` (centres undefined), the melting point fell in the range of 80 to 89 °C.
For `COc1cc(CN2C(=N)c3cc(-c4ccc(F)cc4F)ccc3S2(=O)=O)ccn1`, the melting point was 173 °C.
In turn, `COC(=O)C[C@H](O)C[C@H](O)C=Cc1c(-c2ccc(F)cc2)c(-c2ccccc2)c(C(=O)Nc2ccccc2)n1C(C)C` returned a melting point of 154 to 155 °C.
In turn, `Cc1nc(Nc2ccc(Cl)cc2)sc1C(=O)O` gave a melting point above 250 °C.
As to `COc1ccc(C(Cc2ccccc2)C2=C(C)N=NC2=O)cc1OC1CCCC1` (centres undefined), the melting point was 88 to 90 °C.
Under `O=C(Nc1ccc(C(=O)N2CCCCc3ccccc32)c(Cl)c1)OCCOc1ccccc1` stands 144 to 146 °C; under `Cc1ccc(S(=O)(=O)n2ccc3cc(F)cnc32)cc1`, 160 °C; under `Cc1ccccc1NC(=O)C=CC=CC1(F)CC1c1ccc(Br)c(Br)c1` (centres undefined), 174 to 176 °C.
The compound `OCc1cccc(-n2cccc2)c1Br` yielded a melting point of 78 to 80 °C.
The compound `CC(=O)Nc1cc(C2=NNC(=O)NC2C)ccc1Cl` (centres undefined) yielded a melting point of 251 to 253 °C.
For `CSc1nn2c(N)cc(C)nc2c1S(=O)(=O)c1ccc(C(C)(C)C)cc1`, the melting point was above 230 °C.
With `CC(O)c1cc(F)ccc1Oc1nc2ccc(-n3cc(-c4ccccc4)nn3)cc2cc1Cc1ccccc1` (centres undefined), the melting point was determined as 103 °C.
`C#CC1(O)C=CC2C3CCC4=CC(=O)CC(OC(C)=O)C4C3CCC21CC` (centres undefined) came in with a melting point of 123 to 126 °C.
Consider `NC(=NO)c1ccccc1N`, for which the melting point lay in the range of 85 to 86 °C.
Compound `COc1ccc(CN2C(=O)CCC2C(=O)O)cc1` (centres undefined) displayed a melting point of 103 to 104 °C.
Regarding `COCC(=O)Nc1cc(C(=O)OC)c(O)c2ncc(Cc3ccc(F)cc3)cc12`, the melting point was 154 to 155 °C.
For `CN(C)Cc1csc(N(C)CC#CI)n1` the value was 98 to 100 °C; for `COc1ccc(/C=C/S(=O)(=O)CS(=O)(=O)/C=C/c2ccc(O)c(OC)c2)cc1N`, 148 to 150 °C; for `CCCc1c(OCCCOc2ccc3c(c2CCC)OC(CCC(=O)O)CC3=O)ccc(C(C)=O)c1O` (centres undefined), 149 to 150 °C.
`O=C(CNc1ccc(Cl)cc1)NCCc1ccc(OCc2ccccc2)c(OCc2ccccc2)c1` gave a melting point of 121 °C.
For `NC(=O)N(O)CCNC(=O)c1ccc(Oc2ccc(Cl)cc2)o1`, the melting point lay in the range of 173 to 175 °C.
Turning to `N#Cc1cccc2c1ccn2-c1ncc(C(F)(F)F)cc1Cl`, the melting point is 109 to 111 °C.
For `O=C1c2ccccc2S(=O)(=O)N1CS(=O)(=O)c1ccccc1` the value was 169 to 171 °C; for `CS(=O)(=O)N[C@H]1CC[C@H](CCN2CCN(c3nccc4c3CCO4)CC2)CC1`, 220 °C.
`CCN(CC)CCNC(=O)N1CCCC(S(=O)(=O)c2ccc(OC)cc2)C1` (centres undefined) gave a melting point of 118 to 121 °C.
`O=CNC(CC(=O)O)c1ccccc1` (centres undefined) showed a melting point of 135 to 136 °C.
Consider `COC(=O)C(C)(C)c1ccc(C(=O)Nc2cn3cc(I)ccc3n2)cc1`, for which the melting point was in the range of 234 to 235 °C.
For `CC(NC(=O)c1ccc([N+](=O)[O-])cc1)C(=O)O` (centres undefined) the value was 199 to 200 °C.
With `O=C(NC1CCN(CCc2ccccc2)CC1)C1=Cc2cnc3cccc(n23)S1`, the melting point lay within 216 to 217 °C.
`CCC1(CCCN2CCN(c3ccccn3)CC2)C(=O)Nc2ccccc21` (centres undefined) returned a melting point of 122 to 124 °C.
Under `COc1cc2oc(=O)c(C)c(C)c2cc1OCCN1CCN(c2cccc3[nH]ccc23)CC1` stands 201 to 202 °C.
With `Nc1ccc(S(=O)c2ccccc2)cc1[N+](=O)[O-]` (centres undefined), the melting point lay within 146 to 147 °C.
Under `CCOC(=O)c1c(C)cc2nc(C)n(-c3ccccc3C)c(=O)c2c1C` stands 129 to 130 °C; under `Cc1nc2sccn2c(=O)c1C`, 112 to 113 °C; under `COC(=O)c1ccc(C(F)(F)F)cc1C#N`, 52 °C.
In turn, `Nc1ccc2c3c(cccc13)C(=O)N(C1CCN(Cc3ccccc3)CC1)C2=O` registered a melting point of 226 to 228 °C.
`CC(C)(C)NC(=O)c1nn(-c2ccc(Br)cc2)c2c1C1CCC2CC1`: the melting point was in the range of 191 to 193 °C.
`O=C(O)CCCn1c(-c2ccc3c(c2)OCO3)nc2ccccc21` displayed a melting point of 177 to 180 °C.
Consider `O=C(O)c1csnc1-c1ccc(Cl)c(Cl)c1`, for which the melting point fell in the range of 247 to 248 °C.
For `Cc1noc(NS(=O)(=O)c2cc(F)ccc2F)c1Br` the value was 123 to 125 °C; for `CC(=O)Nc1ccc2cnn(-c3ccnc(N[C@H]4CC[C@H](O)CC4)n3)c2c1`, 288 to 290 °C; for `O=C1SC(Cc2ccc(OCCON=Cc3ccc4ccccc4n3)cc2)C(=O)N1C(c1ccccc1)(c1ccccc1)c1ccccc1` (centres undefined), 127 to 130 °C.
As for `CC(C)(C)OC(=O)N[C@@H](C(=O)N1CCC[C@H]1C(=O)NC1CCc2n[nH]cc2C1)C(c1ccccc1)c1ccccc1` (some centres undefined), the melting point was in the range of 119 to 122 °C.
Consider `CC(C)(CO)CCS(N)(=O)=O`, for which the melting point lay in the range of 75 to 76 °C.
For `CON=CCNC(=O)c1c(I)cccc1C(=O)Nc1ccc(C(F)(F)C(F)(F)F)cc1C` the value was 110 °C; for `O=[N+]([O-])c1ccc(Cl)c(C=NNc2c(Cl)cc(Cl)cc2Cl)c1`, 113 to 116 °C.
As to `O=C(NCCN1CC=C(n2c(=O)[nH]c3ccccc32)CC1)c1ccc(F)cc1`, the melting point stood at 203 °C.
Compound `Cc1cc2cn[nH]c2c(C(=O)NC(C)C)c1NC(=O)c1cc(C(F)F)nn1-c1ncccc1Cl` gave a melting point of 250 to 253 °C.
In turn, `NC1C2CN(C(=O)Nc3ccc(F)cc3)CC12` (centres undefined) yielded a melting point of 150 °C.
Consider `CCOc1ccc2[nH]c(=O)n(N3CCOCC3)c2c1`, for which the melting point turned out to be 155 °C.
In the case of `CSc1cc(C)nc(SC)c1NC(=O)CCN1CCN(CCSc2nc3ccccc3o2)CC1`, the melting point was 110 to 112 °C.
For `COc1ccc(OC)c2c1Cc1c([nH]cnc1=O)N2` the value was above 300 °C.
The compound `Cc1cc(OCC(=O)c2ccc(C(C)C)cc2)cc(C)c1C` yielded a melting point of 96 to 98 °C.
For `CCC(COC)Nc1nc(C)nc2c1nnn2-c1ccc(C(C)C)cc1Br` (centres undefined) the value was 132 to 134 °C; for `CCCCSc1cc(C(=O)O)cc(S(N)(=O)=O)c1Sc1ccccc1`, 192 to 193 °C.
Consider `CNCc1cccc(-c2ccc(CC3SC(=O)NC3=O)c(C)c2)c1` (centres undefined), for which the melting point amounted to 135 °C.
In turn, `COc1cc(Nc2c(C#N)cnc3cc(-c4ccc(CCN5CCOCC5)cc4)c(OC)cc23)c(Cl)cc1Cl` registered a melting point of 215 to 217 °C.
In turn, `CC(=O)Nc1cc(C(C)=O)ccc1OCCCCl` yielded a melting point of 124 to 126 °C.
Turning to `CNC(=S)NCCCCCCc1csc(NC(=N)N)n1`, the melting point fell in the range of 162 to 164 °C.
In the case of `O=C(NCCc1ncc(Cl)cc1Cl)c1ccccc1I`, the melting point is 133 °C.
`COP(=O)(CCC(C)(C)c1ccc(O)cc1O)OC` showed a melting point of 142 to 143 °C.
Compound `C#CCn1cc(C#N)c(C=O)c1` returned a melting point of 114 °C.
As for `N=C(N)NC(=O)Cc1c(-c2ccccc2)cccc1-c1ccc2ccccc2c1`, the melting point fell in the range of 36.8 to 36.9 °C.
Turning to `Cc1c(C)c2c(c(C)c1NC(=O)CC(C)(C)C)C(c1ccc(C(C)CC(=O)O)cc1)CO2` (centres undefined), the melting point was 209 to 210 °C.
Take `COc1cccc2c1C13CCN(C(=O)C4CC4)C(C2)C1(O)CCC(=O)C3` (centres undefined): the melting point fell in the range of 223 to 225 °C.
`CCn1c2ccccc2c2[nH]c(=O)c3nccn3c21` registered a melting point of 315 °C.
The compound `C=C(Cl)CS(=O)(=O)NC(=O)c1nc(OC)cc(OC)n1` displayed a melting point of 125 to 130 °C.
Compound `COc1ccc2c(-c3ccccn3)noc2c1Cl` registered a melting point of 164 to 166 °C.
In turn, `CCN=C(Cc1ccccc1)N1CC2C(=O)CCC(c3ccccc3)(c3ccccc3)C2C1` (centres undefined) yielded a melting point of 108 °C.
